In general, mortality refers to the percentage killed.

The source of these data is patent US9549554B2, “Insecticidal synergistic combinations of phthaldiamide derivatives and abamectin, emamectin, lepimectin or milbemectin” (BAYER CROPSCIENCE AKTIENGESELLSCHAFT, priority 2013, dated 2017).

The test system of one data set is Phaedon cochleariae. Briefly: Phaedon cochleariae spray test (Chinese cabbage leaf disks). The class given is in vivo. The note with it: mustard beetle larvae. From the text:
Solvent: 78.0 parts by weight of acetone
• 1.5 parts by weight of dimethylformamide Emulsifier: 0.5 parts by weight of alkylaryl polyglycolether
Once dry, the leaf disks are infested with mustard beetle larvae (Phaedon cochleariae).
100% means all beetle larvae have been killed and 0% means none of the beetle larvae have been killed.

A further data set has as its system Myzus persicae. Description: Myzus persicae spray test (infested cabbage leaves). The class given is in vivo. Particulars: green peach aphid. As to the method: Solvent: 7 parts by weight of dimethylformamide
Emulsifier: alkylaryl polyglycolether
Further test concentrations are prepared by dilution with emulsifier containing water Ammonium salt and/or penetration enhancer in a dosage of 1000 ppm are added to the desired concentration if necessary.
Cabbage leaves (Brassica oleracea) which are heavily infested by the green peach aphid (Myzus persicae) are treated by being sprayed with the preparation of the active compound of the desired concentration.

For a further data set, the system named is Spodoptera frugiperda. Briefly: whole plant or invertebrate. The protocol: Solvent: 78.0 parts by weight acetone
• 1.5 parts by weight dimethylformamide Emulsifier: 0.5 parts by weight alkylarylpolyglycolether
To produce a suitable preparation of a spore suspension the spores are diluted with emulsifier-containing water to the desired concentration.
Maize (Zea mais) leaf sections are sprayed with a preparation of the active ingredient of the desired concentration. Once dry, the leaf sections are infested with fall armyworm larvae (Spodoptera frugiperda).
After the specified period of time, mortality in % is determined. 100% means all caterpillars have been killed and 0% means none of the caterpillars have been killed. The mortality values determined thus are recalculated using the Colby-formula (see sheet 1).

Where [1] appears, read: Spodoptera frugiperda, in Zea mays, 144 h, read-out: Efficacy in % after 6d (mortality).

As to `Cc1cc(C(F)(C(F)(F)F)C(F)(F)F)ccc1NC(=O)c1cccc(Cl)c1C(=O)NC(C)(C)C#N` [(I-5)], the mortality at 4 g/ha in the data set on Phaedon cochleariae (Phaedon cochleariae, foliar, 144 h, 4 g ai/ha, after 6 d, read-out: Efficacy in % after 6d (mortality)) turned out to be 0%. Further, in the data set with Myzus persicae (Myzus persicae, 144 h, 3 ppm, after 6 d, read-out: Efficacy in % after 6d (mortality)), the mortality at 3 ppm turned out to be 0%. In addition, in the data set with Myzus persicae (Myzus persicae, 144 h, 75 ppm, after 6 d, read-out: Efficacy in % after 6d (mortality)), the mortality at 75 ppm worked out at 0%. In addition, in the data set on Spodoptera frugiperda (setting [1]), the mortality at 0.25 g/ha stood at 0% and the mortality at 3 g/ha is 33%.
On to “Abamectin [Abamectin (II-1), reference compound]”, for which the “Efficacy in % after 6d (mortality)” value was found to be 0% in the data set with Phaedon cochleariae (0.032 g ai/ha) and 0% in the data set on Spodoptera frugiperda (15 g ai/ha, fall armyworm larvae, after 6 d).
With “Emamectin benzoate [Emamectin-Benzoate, reference compound]”, the “Efficacy in % after 6d (mortality)” value with Myzus persicae (15 ppm) came out at 15%.
